Results: ChEMBL document CHEMBL5113500, “New brefeldin A-cinnamic acid ester derivatives as potential antitumor agents: Design, synthesis and biological evaluation” (Eur J Med Chem, 2022)
In brackets after ≈: the same amount, converted by molar mass. Activity calls are given as the source filed them. The calls are words filed in the database; no cut-off is given here.

How the values were obtained:
Bel-7402 [1] = assay: Cell cycle arrest in human Bel-7402 cells assessed as accumulation at G1 phase at 1 uM measured after 24 hrs by propidium iodide staining based flow cytometry (reference value: 38.72%); assay type: functional
HepG2 [2] = assay: Induction of apoptosis in human HepG2 cells assessed as early apoptotic cells at 0.2 uM measured after 48 hrs by Annexin V-FITC/propidium iodide staining based flow cytometry (reference value: 1.81%); assay type: functional
HepG2 [3] = assay: Antiproliferative activity against human HepG2 cells assessed as cell growth inhibition at 1 uM measured after 72 hrs by MTT assay relative to control; assay type: functional; settings: read-out: GI
Bel-7402 [4] = assay: Antiproliferative activity against human Bel-7402 cells measured after 72 hrs by MTT assay; assay type: functional, cell-based; settings: Bel-7402, 72 h
PANC-1 = assay: Antiproliferative activity against human PANC-1 cells measured after 72 hrs by MTT assay; assay type: functional, cell-based; settings: PANC-1, 72 h
[5] = Cytotoxicity against human L02 cells measured after 72 hrs by MTT assay; assay type: toxicity, cell-based
[6] = Solubility of the compound in 5% DMSO and 10% Solutol HS-15 saline solution; assay type: physicochemical
HepG2 [7] = assay: Inhibition of colony formation in human HepG2 cells at 0.4 to 0.8 uM treated every 3 days for 14 days by crystal violet staining based assay; assay type: functional, cell-based; settings: dose 0.4-0.8 µM, time 14.0 day
Bel-7402 [8] = assay: Inhibition of colony formation in human Bel-7402 cells at 2 uM treated every 3 days for 14 days by crystal violet staining based assay; assay type: functional, cell-based; settings: time 14.0 day
Bel-7402 [9] = assay: Inhibition of colony formation in human Bel-7402 cells assessed as reduction in colony size at 0.5 to 2 uM treated every 3 days for 14 days by crystal violet staining based microscopy; assay type: functional, cell-based; settings: dose 0.5-2 µM, time 14.0 day
HepG2 [10] = assay: Cell cycle arrest in human HepG2 cells assessed as accumulation at S phase at 0.2 uM measured after 24 hrs by propidium iodide staining based flow cytometry (reference value: 32.81%); assay type: functional
Bel-7402 [11] = assay: Cell cycle arrest in human Bel-7402 cells assessed as accumulation at G2/M phase at 1 uM measured after 24 hrs by propidium iodide staining based flow cytometry (reference value: 30.29%); assay type: functional
HepG2 [12] = assay: Cell cycle arrest in human HepG2 cells assessed as accumulation at G2/M phase at 0.8 uM measured after 24 hrs by propidium iodide staining based flow cytometry (reference value: 19.93%); assay type: functional
Bel-7402 [13] = assay: Cell cycle arrest in human Bel-7402 cells assessed as accumulation at S phase at 2 uM measured after 24 hrs by propidium iodide staining based flow cytometry (reference value: 31%); assay type: functional
Bel-7402 [14] = assay: Cell cycle arrest in human Bel-7402 cells assessed as accumulation at G2/M phase at 2 uM measured after 24 hrs by propidium iodide staining based flow cytometry (reference value: 30.29%); assay type: functional
HepG2 [15] = assay: Induction of apoptosis in human HepG2 cells assessed as viable cells at 0.4 uM measured after 48 hrs by Annexin V-FITC/propidium iodide staining based flow cytometry (reference value: 94.5%); assay type: functional; settings: read-out: Activity
HepG2 [16] = assay: Induction of apoptosis in human HepG2 cells assessed as necrotic cells at 0.4 uM measured after 48 hrs by Annexin V-FITC/propidium iodide staining based flow cytometry (reference value: 2.04%); assay type: functional
HepG2 [17] = assay: Induction of apoptosis in human HepG2 cells assessed as late apoptotic cells at 0.8 uM measured after 48 hrs by Annexin V-FITC/propidium iodide staining based flow cytometry (reference value: 1.66%); assay type: functional
HepG2 [18] = assay: Induction of apoptosis in human HepG2 cells assessed as necrotic cells at 0.8 uM measured after 48 hrs by Annexin V-FITC/propidium iodide staining based flow cytometry (reference value: 2.04%); assay type: functional
HepG2 [19] = assay: Induction of apoptosis in human HepG2 cells assessed as increase in cleaved PARP expression at 0.2 to 0.8 uM measured after 48 hrs by Western blot analysis; assay type: functional, cell-based; settings: dose 0.2-0.8 µM
HepG2 [20] = assay: Induction of apoptosis in human HepG2 cells assessed as increase in cleaved caspase-3 expression at 0.2 to 0.8 uM measured after 48 hrs by Western blot analysis; assay type: functional, cell-based; settings: dose 0.2-0.8 µM
HepG2 [21] = assay: Induction of ROS generation in human HepG2 cells measured after 48 hrs by DCFH-DA probe based fluorescence microscopy; assay type: functional, cell-based; settings: dose 0.2-0.8 µM, DDE = dose-dependent effect
[22] = Acute toxicity in ICR mouse assessed as body weight loss at 100 mg/kg, ip measured for 6 days; assay type: organism-based; settings: in vivo, 144 h, time 6 day
[23] = Acute toxicity in ICR mouse assessed as body weight loss at 809 mg/kg, po measured for 6 days; assay type: organism-based; settings: in vivo, 144 h, time 6 day
[24] = Acute toxicity in ICR mouse assessed as change in AST level at 100 mg/kg, ip measured after 6 days; assay type: organism-based; settings: in vivo, 144 h, time 6 day
[25] = Acute toxicity in ICR mouse assessed as change in ALP level at 100 mg/kg, ip measured after 6 days; assay type: organism-based; settings: in vivo, 144 h, time 6 day
[26] = Acute toxicity in ICR mouse assessed as change in blood urea nitrogen level at 100 mg/kg, ip measured after 6 days; assay type: organism-based; settings: in vivo, 144 h, time 6 day
[27] = Acute toxicity in ICR mouse assessed as change in creatinine level at 100 mg/kg, ip measured after 6 days; assay type: organism-based; settings: in vivo, 144 h, time 6 day
[28] = Acute toxicity in ICR mouse assessed as change in uric acid level at 100 mg/kg, ip measured after 6 days; assay type: organism-based; settings: in vivo, 144 h, time 6 day
[29] = Acute toxicity in ICR mouse assessed as change in creatine kinase level at 100 mg/kg, ip measured after 6 days; assay type: organism-based; settings: in vivo, 144 h, time 6 day
[30] = Acute toxicity in ICR mouse assessed as pathological change in kidney at 100 mg/kg, ip measured after 6 days; assay type: organism-based; settings: in vivo, 144 h, time 6 day
[31] = Acute toxicity in ICR mouse assessed as pathological change in liver at 100 mg/kg, ip measured after 6 days; assay type: organism-based; settings: in vivo, 144 h, time 6 day
[32] = Terminal half life in ICR mouse at 10 mg/kg, iv; assay type: ADME, organism-based; settings: in vivo, read-out: beta t1/2 (converted)
[33] = AUC (0 to t) in ICR mouse at 10 mg/kg, iv; assay type: ADME, organism-based; parameters: dose 10 mg/kg, route iv; settings: in vivo
[34] = Clearance in ICR mouse at 10 mg/kg, iv; assay type: ADME, organism-based; settings: in vivo
HepG2 [35] = assay: Antitumor activity against human HepG2 cells xenografted in BALB/c nude mouse assessed as tumor growth inhibition at 10 mg/kg, ip administered once daily for 16 days relative to control; assay type: functional; settings: HepG2, 384 h, time 16 day, read-out: TGI
HepG2 [36] = assay: Antitumor activity against human HepG2 cells xenografted in BALB/c nude mouse assessed as tumor growth inhibition at 5 mg/kg, ip administered once daily for 16 days relative to control; assay type: functional; settings: HepG2, 384 h, time 16 day, read-out: TGI
[37] = Toxicity in human HepG2 cells xenografted BALB/c nude mouse assessed as change in body weight at 5 to 10 mg/kg, ip administered once daily for 16 days measured 3 times per week during compound dosing; assay type: organism-based; settings: in vivo, 384 h, dose 5-10 mg/kg, time 16 day
HepG2 [38] = assay: Antitumor activity against human HepG2 cells xenografted in BALB/c nude mouse assessed as increase in cleaved caspase-3 expression at 5 to 10 mg/kg, ip administered once daily for 16 days measured post-last dose by immunohistochemical analysis; assay type: functional, organism-based; settings: dose 5-10 mg/kg, time 16.0 day

C[C@H]1CCC/C=C/[C@@H]2C[C@H](O)C[C@H]2[C@H](OC(=O)/C=C/c2ccc(N(C)C)cc2)/C=C/C(=O)O1
Activity (Bel-7402 [1]): 54.21%
Activity (HepG2 [2]): 2.03%
inhibition of growth at 1 µM (HepG2 [3]): 92.1%
IC50 (Bel-7402 [4]): 840 nM
IC50 (PANC-1): 640 nM
IC50 at 72 h [5]: 2810 nM
solubility [6]: 2500 µg/mL (≈ 5.51 mM)
inhibition (HepG2 [7]): Active
inhibition (Bel-7402 [8]): Active
inhibition (Bel-7402 [9]): Active
Activity (HepG2 [10]): 29.24%
Activity (Bel-7402 [11]): 26.22%
Activity (HepG2 [12]): 15.85%
Activity (Bel-7402 [13]): 20.69%
Activity (Bel-7402 [14]): 18.82%
viability at 0.4 µM (HepG2 [15]): 53.1%
Activity (HepG2 [16]): 41.57%
Activity (HepG2 [17]): 4.24%
Activity (HepG2 [18]): 39.85%
Activity (HepG2 [19]): Active
Activity (HepG2 [20]): Active
Activity (HepG2 [21]): Dde
Activity [22]: Toxic
Activity [23]: Toxic
Activity [24]: Non-Toxic
Activity [25]: Non-Toxic
Activity [26]: Non-Toxic
Activity [27]: Non-Toxic
Activity [28]: Non-Toxic
Activity [29]: Non-Toxic
Activity [30]: Non-Toxic
Activity [31]: Non-Toxic
half-life [32]: 2.08 h
AUC(0-t) [33]: 4010 ng·h/mL
clearance [34]: 42.5 mL/min/kg
inhibition in vivo at 10 mg/kg (HepG2 [35]): 46.2%
inhibition in vivo at 5 mg/kg (HepG2 [36]): 34.3%
Activity [37]: Non-Toxic
Activity (HepG2 [38]): Active
